Source: patent US4260613A, “Pyridoxine derivatives” (Crinos Industria Farmacobiologica S.p.A., priority 1978, dated 1981)

Experiments:
Format in all cases: in vivo
mouse = assay: Acute toxicity, LD50 per os in the mouse (sole dose, 18 h fasting); details: in words, vs 2-(4-isobutylphenyl)-propionic acid
Protocol: The acute toxicity has been determined by administering the substances per os in a sole dose to the mouse after 18 hours of fasting. The LD50 has been determined according to Litchfield and Wilcoxon (J. Pharmacol. Exp. Ther. 96, 99, 1949).

rat = assay: Ulcer-causing activity, UD50 per os in the rat (gastric lesions 7 h after treatment); details: in words, vs 2-(4-isobutylphenyl)-propionic acid
Protocol: The ulcer-causing activity has been determined by administering the substances per os to rats which have fasted 18 hours and evaluating the presence of gastric lesions 7 hours after the treatment. The UD50 has been determined according to Litchfield and Wilcoxon (J. Pharmacol. Exp. Ther. 96, 99, 1949).

[1] = test system: caraganin-edema, normal rat; assay: Caraganin-edema test according to Winter et al in the normal rat (anti-inflammatory activity); details: 25 mg/kg per os, 3hrs, vs controls
Protocol: Caraganin-edema test according to Winter et al (Proc. Soc. Exp. Biol. Med., 111, 544, 1962) in the normal rat. The anti-inflammatory activity is expressed as a percentage of inhibition, after 3 and 6 hours, with respect to the controls.

SMILES | toxicity with respect to the free acid (mouse) | ulcer-causing activity with respect to the free acid (rat) | ANTI-INFLAMMATORY Inhibition % [1]
Cc1ncc(COC(=O)C(C)c2ccc(CC(C)C)cc2)c(CO)c1O (centres unmarked) [2-(4-isobutyl-phenyl)-propionic pyridoxine 5-ester] | lower toxicity | lower toxicity and ulcer-causing activity | 43.6%
Cc1ncc(COC(=O)C(C)c2ccc(CC(C)C)cc2)c2c1OC(C)(C)OC2 (centres unmarked) [2-(4-isobutylphenyl)-propionic isopropylidene-pyridoxine 5-ester] | lower toxicity | lower toxicity and ulcer-causing activity | 
